Test results from patent publication US20260209193A1, “NOVEL INHIBITORS OF DNA DAMAGE RESPONSES FOR CANCER THERAPY” (The Regents of the University of California, priority 2022, published 2026).

Assays:
Format in all cases: cell-based
[1] = biological target: T1, ATR (Homo sapiens, UniProt Q13535); test: ATR-mediated signaling: phosphorylation of Rad17 Ser 645 and CHK1 Ser 345 in cells; conditions: for ATR inhibition potency relative to JC099 (OLA- or UV-induced phosphorylation of Rad17 and CHK1): compared to JC099; for Olaparib induced phosphorylation of Rad17 at Ser 645 and CHK1 at Ser 345: PC3 cells
T1 construct: endogenous in cells; host or cells: PC3, C4-2B/MR, SUM149PT-BRCA1rev, UWB1.289+BRCA1, MDA-MB-231
T1 sequence (Q13535 whole entry): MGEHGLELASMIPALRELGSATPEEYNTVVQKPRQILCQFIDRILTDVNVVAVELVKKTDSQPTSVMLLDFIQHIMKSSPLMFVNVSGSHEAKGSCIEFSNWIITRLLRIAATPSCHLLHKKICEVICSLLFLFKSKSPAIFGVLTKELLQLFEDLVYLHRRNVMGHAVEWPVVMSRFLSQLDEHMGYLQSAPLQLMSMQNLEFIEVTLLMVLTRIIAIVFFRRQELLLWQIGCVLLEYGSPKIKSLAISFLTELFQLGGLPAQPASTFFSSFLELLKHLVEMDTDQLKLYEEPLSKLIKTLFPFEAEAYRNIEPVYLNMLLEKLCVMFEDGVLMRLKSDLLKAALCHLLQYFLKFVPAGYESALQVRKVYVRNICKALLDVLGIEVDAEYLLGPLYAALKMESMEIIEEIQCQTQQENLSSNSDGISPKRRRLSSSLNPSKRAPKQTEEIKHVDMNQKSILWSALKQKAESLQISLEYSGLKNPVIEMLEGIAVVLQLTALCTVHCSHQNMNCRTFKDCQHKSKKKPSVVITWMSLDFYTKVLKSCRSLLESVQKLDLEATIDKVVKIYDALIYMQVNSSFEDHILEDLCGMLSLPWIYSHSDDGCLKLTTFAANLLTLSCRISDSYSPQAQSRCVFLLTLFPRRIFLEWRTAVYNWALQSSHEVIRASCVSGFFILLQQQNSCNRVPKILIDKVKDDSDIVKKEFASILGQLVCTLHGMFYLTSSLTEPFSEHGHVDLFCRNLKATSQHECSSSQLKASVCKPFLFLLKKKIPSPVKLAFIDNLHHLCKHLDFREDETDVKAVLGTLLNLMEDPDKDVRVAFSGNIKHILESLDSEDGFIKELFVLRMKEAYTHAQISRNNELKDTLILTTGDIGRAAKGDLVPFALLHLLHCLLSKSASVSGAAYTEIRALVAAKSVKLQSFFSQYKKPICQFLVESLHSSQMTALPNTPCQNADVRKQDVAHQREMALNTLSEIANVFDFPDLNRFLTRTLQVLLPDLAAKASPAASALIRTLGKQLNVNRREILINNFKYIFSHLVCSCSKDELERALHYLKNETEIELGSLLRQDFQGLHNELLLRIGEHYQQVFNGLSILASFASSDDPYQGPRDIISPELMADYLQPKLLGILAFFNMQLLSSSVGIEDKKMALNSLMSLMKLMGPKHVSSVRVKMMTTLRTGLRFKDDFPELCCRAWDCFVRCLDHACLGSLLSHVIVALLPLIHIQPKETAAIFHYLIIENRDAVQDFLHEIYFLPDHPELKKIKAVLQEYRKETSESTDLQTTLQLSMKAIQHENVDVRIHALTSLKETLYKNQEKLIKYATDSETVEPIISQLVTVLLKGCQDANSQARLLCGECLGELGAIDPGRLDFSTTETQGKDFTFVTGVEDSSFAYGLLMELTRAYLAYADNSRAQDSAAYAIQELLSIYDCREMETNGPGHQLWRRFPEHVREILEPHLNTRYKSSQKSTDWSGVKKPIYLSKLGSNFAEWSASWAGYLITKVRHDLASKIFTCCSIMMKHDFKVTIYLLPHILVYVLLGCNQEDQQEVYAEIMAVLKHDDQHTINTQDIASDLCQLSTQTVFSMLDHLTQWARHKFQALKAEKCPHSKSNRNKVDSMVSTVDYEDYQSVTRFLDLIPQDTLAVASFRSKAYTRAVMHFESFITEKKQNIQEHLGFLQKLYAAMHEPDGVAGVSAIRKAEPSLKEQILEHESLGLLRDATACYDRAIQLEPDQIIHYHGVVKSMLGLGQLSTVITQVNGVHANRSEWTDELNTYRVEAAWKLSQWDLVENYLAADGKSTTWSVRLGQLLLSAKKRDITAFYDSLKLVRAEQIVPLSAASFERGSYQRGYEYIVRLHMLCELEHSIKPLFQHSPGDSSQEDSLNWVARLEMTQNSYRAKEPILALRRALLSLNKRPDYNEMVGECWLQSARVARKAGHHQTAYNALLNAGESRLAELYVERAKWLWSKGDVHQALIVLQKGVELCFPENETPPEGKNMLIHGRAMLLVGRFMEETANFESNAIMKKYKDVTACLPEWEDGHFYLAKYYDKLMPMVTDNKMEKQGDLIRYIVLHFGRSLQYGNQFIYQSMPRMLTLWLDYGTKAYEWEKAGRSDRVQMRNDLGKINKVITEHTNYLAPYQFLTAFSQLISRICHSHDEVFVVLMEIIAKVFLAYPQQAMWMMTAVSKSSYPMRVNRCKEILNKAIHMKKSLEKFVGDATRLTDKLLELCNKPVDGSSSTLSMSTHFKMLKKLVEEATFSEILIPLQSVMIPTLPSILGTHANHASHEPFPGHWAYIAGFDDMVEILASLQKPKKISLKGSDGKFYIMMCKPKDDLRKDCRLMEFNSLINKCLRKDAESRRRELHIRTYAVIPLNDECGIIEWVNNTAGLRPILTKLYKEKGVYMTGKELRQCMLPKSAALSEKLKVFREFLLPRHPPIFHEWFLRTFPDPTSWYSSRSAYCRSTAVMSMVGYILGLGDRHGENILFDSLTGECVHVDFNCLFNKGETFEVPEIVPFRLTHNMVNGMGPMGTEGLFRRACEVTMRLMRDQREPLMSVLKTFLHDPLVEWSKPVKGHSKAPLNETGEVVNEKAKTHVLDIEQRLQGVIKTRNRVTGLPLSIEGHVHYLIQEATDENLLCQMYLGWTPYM
T1 sequence (Q8WXE1 whole entry partner): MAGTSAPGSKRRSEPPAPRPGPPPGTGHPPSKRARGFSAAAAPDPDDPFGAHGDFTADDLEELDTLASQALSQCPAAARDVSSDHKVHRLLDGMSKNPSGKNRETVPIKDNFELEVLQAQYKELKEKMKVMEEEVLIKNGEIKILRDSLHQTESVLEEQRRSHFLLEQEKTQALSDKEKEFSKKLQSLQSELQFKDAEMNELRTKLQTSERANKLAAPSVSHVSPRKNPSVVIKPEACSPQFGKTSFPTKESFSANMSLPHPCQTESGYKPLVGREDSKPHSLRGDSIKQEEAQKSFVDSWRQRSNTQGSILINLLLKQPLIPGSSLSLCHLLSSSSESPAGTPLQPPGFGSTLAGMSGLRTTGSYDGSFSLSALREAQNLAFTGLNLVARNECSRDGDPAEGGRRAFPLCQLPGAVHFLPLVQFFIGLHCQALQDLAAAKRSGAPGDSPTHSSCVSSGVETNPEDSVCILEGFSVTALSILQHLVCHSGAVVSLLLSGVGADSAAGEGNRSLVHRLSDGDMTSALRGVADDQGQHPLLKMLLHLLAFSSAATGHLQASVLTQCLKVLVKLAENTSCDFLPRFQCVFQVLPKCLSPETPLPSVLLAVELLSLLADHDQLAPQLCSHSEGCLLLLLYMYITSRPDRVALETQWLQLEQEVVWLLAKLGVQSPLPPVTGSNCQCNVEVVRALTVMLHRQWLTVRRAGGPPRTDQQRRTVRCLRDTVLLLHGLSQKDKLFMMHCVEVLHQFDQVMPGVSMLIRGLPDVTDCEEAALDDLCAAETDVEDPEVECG
Method: PARP inhibitor-resistant cells are increasingly dependent on ATR for survival, and ATR inhibition disrupts restored HR and fork protection pathways in PARP inhibitor resistant BRCA-deficient cancer cells. For ATR kinase in vitro assays, ATR was immunoprecipitated with 3 μg of anti-ATR antibody (Bethyl Laboratories, A300-137A) from 1 mg of cell lysate. […] The IC50 was determined by the enzyme profiling service of Eurofins Cerep (France). […] The phosphorylation of CHK1 at Ser 345 sites was used as a bio-marker of ATR-mediated signaling pathway. The phosphorylation of Rad17 at Ser 645, which is a substrate of ATR, was also examined.
ATR inhibition was assessed in C4-2B/MR cells. Considering ATM is a homologous protein of ATR, we also detected the effect of JC046 analogs on the phosphorylation of KAP1 at Ser 824 and CHK2 at Thr 68 sites, which were used as markers of ATM signaling pathway.

[2] = test system: PC3 and SUM149PT-BRCA1mut cells; test: CCK8 cell killing screen of JC099 analogs
Text: Structure optimization represents a critical step towards identifying candidate compounds for preclinical and clinical development and contributes to structure-function analysis. […] Cell killing potency was detected by a CCK8 assay in prostate and breast cancer cells. […]
The cell killing potency was detected by a CCK8 assay in prostate and breast cancer cells.

[3] = biological target: T2, PARP1 (Homo sapiens, UniProt P09874); test: PARP1 trapping, chromatin fractionation (chromatin-bound fraction)
T2 construct: endogenous in cells; host or cells: PC3
T2 sequence (P09874 whole entry, species assumed): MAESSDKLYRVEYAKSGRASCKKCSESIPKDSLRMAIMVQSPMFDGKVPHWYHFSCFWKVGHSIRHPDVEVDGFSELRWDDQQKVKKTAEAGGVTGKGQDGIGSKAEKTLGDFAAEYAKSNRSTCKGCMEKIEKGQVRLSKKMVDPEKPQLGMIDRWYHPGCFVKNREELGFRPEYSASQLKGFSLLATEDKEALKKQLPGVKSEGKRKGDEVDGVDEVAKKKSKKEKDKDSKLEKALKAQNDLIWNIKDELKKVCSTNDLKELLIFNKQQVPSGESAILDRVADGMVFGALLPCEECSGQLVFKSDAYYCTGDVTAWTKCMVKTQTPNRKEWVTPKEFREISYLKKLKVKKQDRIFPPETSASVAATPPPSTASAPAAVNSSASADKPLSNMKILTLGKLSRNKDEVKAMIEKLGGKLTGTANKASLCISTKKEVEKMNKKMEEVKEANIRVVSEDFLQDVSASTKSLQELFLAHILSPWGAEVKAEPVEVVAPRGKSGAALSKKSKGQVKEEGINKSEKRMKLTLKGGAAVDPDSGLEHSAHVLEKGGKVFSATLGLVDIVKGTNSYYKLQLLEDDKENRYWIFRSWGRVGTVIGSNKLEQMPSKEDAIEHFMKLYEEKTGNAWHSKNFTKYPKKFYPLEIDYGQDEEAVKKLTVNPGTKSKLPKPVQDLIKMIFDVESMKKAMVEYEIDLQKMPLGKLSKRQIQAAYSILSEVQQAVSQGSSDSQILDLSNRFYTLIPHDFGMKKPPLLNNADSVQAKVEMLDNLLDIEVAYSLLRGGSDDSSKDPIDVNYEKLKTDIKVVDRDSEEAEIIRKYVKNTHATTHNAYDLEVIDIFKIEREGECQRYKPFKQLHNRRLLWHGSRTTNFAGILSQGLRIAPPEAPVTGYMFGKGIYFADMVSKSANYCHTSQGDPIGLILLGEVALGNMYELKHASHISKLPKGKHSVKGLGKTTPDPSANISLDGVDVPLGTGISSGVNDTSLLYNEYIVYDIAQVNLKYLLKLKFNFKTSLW
How it was run: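 PARP1 trapping was measured as PARP1 in the chromatin-bound fraction across six lines: SUM149PT-BRCA1mut/BRCA1rev (breast), UWB1.289 BRCA1-null and BRCA1-restored (ovarian), HR-deficient C4-2B/MR (Rad51 mutant) and HR-proficient PC3 (prostate).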

SMILES | ATR inhibition potency relative to JC099 (OLA- or UV-induced phosphorylation of Rad17 and CHK1) [1] | cell killing potency relative to JC099 [2] | PARP1-trapping potency relative to JC099 (PARP1 in the chromatin-bound fraction) ([3]; PC3 cells) | further results
O=C1/C(=C/c2ccc(F)c(F)c2)CC(NC(=O)c2ccc(OCCN3CCC(N4CCCC4)CC3)cc2)C/C1=C\c1ccc(F)c(F)c1 (stereo not drawn) [JCS080, N-(3,5-bis((E)-3,4-difluorobenzylidene)-4-oxocyclohexyl)-4-(2-(4-(pyrrolidin-1-yl)piperidin-1-yl)ethoxy)benzamide] | greater ATR inhibition potential | higher cell killing potency than JC099 |  | 
CCN(CC)CCOc1ccc(C(=O)NC2C/C(=C\c3cc(F)c(F)c(OC)c3)C(=O)/C(=C/c3cc(F)c(F)c(OC)c3)C2)cc1 (stereo not drawn) [JCS152, N-(3,5-Bis((E)-3,4-difluoro-5-methoxybenzylidene)-4-oxocyclohexyl)-4-(2-(diethylamino)-ethoxy)benzamide] | greater ATR inhibition potential | higher cell killing potency than JC099 |  | 
CN1CCC[C@H]1CNc1ncc(C(=O)NC2C/C(=C\c3ccc(F)c(F)c3)C(=O)/C(=C/c3ccc(F)c(F)c3)C2)cn1 (stereo partly drawn) [JCS161, N-(3,5-Bis((E)-3,4-difluorobenzylidene)-4-oxocyclohexyl)-2-((((S)-1-methylpyrrolidin-2-yl)methyl)-amino)pyrimidine-5-carboxamide] |  | higher cell killing potency than JC099 |  | 
CN1CCN(c2ccc(C(=O)NC3C/C(=C\c4ccc(F)c(F)c4)C(=O)/C(=C/c4ccc(F)c(F)c4)C3)cc2)CC1 (stereo not drawn) [JCS071, N-(3,5-Bis((E)-3,4-difluorobenzylidene)-4-oxocyclohexyl)-4-(4-methylpiperazin-1-yl)benzamide] |  | higher cell killing potency than JC099 |  | 
O=C(CN1CCCC1)Nc1ccc(C(=O)NC2C/C(=C\c3ccc(F)c(F)c3)C(=O)/C(=C/c3ccc(F)c(F)c3)C2)cc1 (stereo not drawn) [JCS046, N-(3,5-bis((E)-3,4-difluorobenzylidene)-4-oxocyclohexyl)-4-(2-(pyrrolidin-1-yl)acetamido)benzamide] |  | higher cell killing potency than JC099 |  | PARP1 trapped on DNA lesions ([3]; 0.3 μM, PC3 cells): trapped
CCCN(CCC)CCOc1ccc(C(=O)NC2C/C(=C\c3cc(Cl)cc(Cl)c3)C(=O)/C(=C/c3cc(Cl)cc(Cl)c3)C2)cc1 (stereo not drawn) [JCS062, N-(3,5-Bis((E)-3,5-dichlorobenzylidene)-4-oxocyclohexyl)-4-(2-(dipropylamino)ethoxy)benzamide] |  |  |  | PARP1 trapped on DNA lesions ([3]; 0.3 μM, PC3 cells): trapped; Olaparib induced phosphorylation of Rad17 at Ser 645 and CHK1 at Ser 345 ([1]; 1 μM and 2 μM): inhibited
O=C1/C(=C/c2ccc(F)c(F)c2)CC(NC(=O)c2ccc3c(ccn3CCN3CCCC3)c2)C/C1=C\c1ccc(F)c(F)c1 (stereo not drawn) [JCS075, N-(3,5-bis((E)-3,4-difluorobenzylidene)-4-oxocyclohexyl)-1-(2-(pyrrolidin-1-yl)ethyl)-1H-indole-5-carboxamide] |  |  | increased the accumulation of PARP1 in the chromatin-bound fraction than JC099 | Olaparib induced phosphorylation of Rad17 at Ser 645 and CHK1 at Ser 345 ([1]; 1 μM and 2 μM): decreased the phosphorylation of Rad17 and CHK1
CCCCN(CCCC)C(=O)Nc1ccc(C(=O)NC2C/C(=C\c3ccc(F)c(F)c3)C(=O)/C(=C/c3ccc(F)c(F)c3)C2)cc1 (stereo not drawn) [JCS060, N-(3,5-bis((E)-3,4-difluorobenzylidene)-4-oxocyclohexyl)-4-(3,3-dibutylureido)benzamide] |  |  | higher potency in PARP1-trapping | PARP1 trapped on DNA lesions ([3]; 0.3 μM, PC3 cells): trapped; Olaparib induced phosphorylation of Rad17 at Ser 645 and CHK1 at Ser 345 ([1]; 1 μM and 2 μM): inhibited
N#Cc1cc(NCCN2CCCC2)ccc1C(=O)NC1C/C(=C\c2ccc(F)c(F)c2)C(=O)/C(=C/c2ccc(F)c(F)c2)C1 (stereo not drawn) [JCS091, N-(3,5-Bis((E)-3,4-difluorobenzylidene)-4-oxocyclohexyl)-2-cyano-4-((2-(pyrrolidin-1-yl)ethyl)ami-no)benzamide] |  | higher cell killing potency than JC099 | higher potency in PARP1-trapping | 
CCN(CC)C(=O)c1ccc(C2C/C(=C\c3ccc(F)c(F)c3)C(=O)/C(=C/c3ccc(F)c(F)c3)C2)c2[nH]ncc12 (stereo not drawn) [JCS005, 7-(3,5-bis((E)-3,4-difluorobenzylidene)-4-oxocyclohexyl)-N,N-diethyl-1H-indazole-4-carboxamide] |  |  |  | PARP1 trapped on DNA lesions ([3]; 0.5 μM and 2 μM, PC3 and C4-2B/MR cells): trapped; UV induced phosphorylation of CHK1 at Ser 345 ([1]; 1 μM and 2 μM, PC3 and SUM149PT-BRCA1rev cells): inhibited
O=C1/C(=C/c2ccc(F)c(F)c2)CC(NC(=O)c2ccc(OCCN3CC4(COC4)C3)cc2)C/C1=C\c1ccc(F)c(F)c1 (stereo not drawn) [JCS151, 4-(2-(2-Oxa-6-azaspiro[3.3]heptan-6-yl)ethoxy)-N-(3,5-bis((E)-3,4-difluorobenzylidene)-4-oxocyclohexyl)benzamide] | their potencies were close to JC099 |  | their potencies were less than JC099 | 
CCCN(CCC)CCOc1ccc(C(=O)NC2C/C(=C\c3ccc(F)c(F)c3)C(=O)/C(=C/c3ccc(F)c(F)c3)C2)cc1 (stereo not drawn) [JCSO11] |  | higher cell killing potency than JC099 |  | 
CCCCN(CCCC)CCOc1ccc(C(=O)NC2C/C(=C\c3ccc(F)c(F)c3)C(=O)/C(=C/c3ccc(F)c(F)c3)C2)cc1 (stereo not drawn) [JCS012, N-(3,5-Bis((E)-3,4-difluorobenzylidene)-4-oxocyclohexyl)-4-(2-(dibutylamino)ethoxy)benzamide] | greater ATR inhibition potential |  | higher potency in PARP1-trapping | PARP1 trapped on DNA lesions ([3]; 0.5 μM and 2 μM, PC3 cells): trapped
CCN(CC)C(=O)c1ccc(C(=O)NC2C/C(=C\c3ccc(F)c(F)c3)C(=O)/C(=C/c3ccc(F)c(F)c3)C2)c2nn(C)cc12 (stereo not drawn) [JCS003, N^7-(3,5-bis((E)-3,4-difluorobenzylidene)-4-oxocyclohexyl)-N^4,N^4-diethyl-2-methyl-2H-indazole-4,7-dicarboxamide] |  |  |  | PARP1 trapped on DNA lesions ([3]; 0.5 μM, PC3 and C4-2B/MR cells): trapped; Olaparib induced phosphorylation of CHK1 at Ser 345 ([1]; 0.5 μM, 1 μM, 2 μM, PC3 and SUM149PT-BRCA1rev cells): inhibited; Olaparib induced phosphorylation of Rad17 at Ser 645 and CHK1 at Ser 345 ([1]; 2 μM): inhibited
CN(C)CCCN(CCCN(C)C)C(=O)Nc1ccc(C(=O)NC2C/C(=C\c3ccc(F)c(F)c3)C(=O)/C(=C/c3ccc(F)c(F)c3)C2)cc1 (stereo not drawn) [JCS058, N-(3,5-bis((E)-3,4-difluorobenzylidene)-4-oxocyclohexyl)-4-(3,3-bis(3-(dimethylamino)propyl)ureido)benzamide] |  |  |  | PARP1 trapped on DNA lesions ([3]; 0.3 μM, PC3 cells): trapped; Olaparib induced phosphorylation of Rad17 at Ser 645 and CHK1 at Ser 345 ([1]; 1 μM and 2 μM): inhibited
O=C1/C(=C/c2ccc(F)c(F)c2)CC(NC(=O)c2ccc(OCCNN3CCCCC3)cc2)C/C1=C\c1ccc(F)c(F)c1 (stereo not drawn) [JCS150, N-(3,5-Bis((E)-3,4-difluorobenzylidene)-4-oxocyclohexyl)-4-(2-(piperidin-1-ylamino)ethoxy)-benzamide] | their potencies were close to JC099 |  | their potencies were less than JC099 | 
CCN(CC)CCOc1nncc2cc(C(=O)NC3C/C(=C\c4ccc(F)c(F)c4)C(=O)/C(=C/c4ccc(F)c(F)c4)C3)ccc12 (stereo not drawn) [JCS133, N-(3,5-Bis((E)-3,4-difluorobenzylidene)-4-oxocyclohexyl)-1-(2-(diethylamino)ethoxy)phthalazine-6-carboxamide] | their potencies were close to JC099 |  | higher potency in PARP1-trapping | 
CCN(CC)CCOc1ccc(C(=O)NC2C/C(=C\c3ccc(F)c(F)c3F)C(=O)/C(=C/c3ccc(F)c(F)c3F)C2)cc1 (stereo not drawn) [JCS159, 4-(2-(Diethylamino)ethoxy)-N-(4-oxo-3,5-bis((E)-2,3,4-trifluorobenzylidene)cyclohexyl)benzamide] | less ATR inhibition potencies |  | higher potency in PARP1-trapping | 
